From patent publication US20260034111A1, “NOVEL HETEROCYCLES AS sPLA2-X INHIBITORS” (Cayman Chemical Company Incorporated, priority 2022, published 2026)
Counter-ions that a name gives are not always drawn. Like-named read-outs stand apart in the source and are kept apart here.

Columns and labels:
[1] = target: T1, recombinant human sPLA2-IIA enzyme (Homo sapiens, UniProt P14555); assay: sPLA2-IIA enzyme inhibition assay (thio-PC substrate, DTNB detection, absorbance 410 nm); format: biochemical; conditions: class symbols
T1 construct: made in house; host or cells: E. coli
T1 sequence (P14555 21-144): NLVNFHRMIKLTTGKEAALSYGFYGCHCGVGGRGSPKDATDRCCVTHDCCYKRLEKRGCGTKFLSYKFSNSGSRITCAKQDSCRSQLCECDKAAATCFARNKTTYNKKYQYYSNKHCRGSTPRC

[2] = target: T2, recombinant human sPLA2-V enzyme (Homo sapiens, UniProt P39877); assay: sPLA2-V enzyme inhibition assay (thio-PC substrate, DTNB detection, absorbance 410 nm); format: biochemical; conditions: class symbols
T2 construct: made in house; host or cells: E. coli
T2 sequence (P39877 21-138): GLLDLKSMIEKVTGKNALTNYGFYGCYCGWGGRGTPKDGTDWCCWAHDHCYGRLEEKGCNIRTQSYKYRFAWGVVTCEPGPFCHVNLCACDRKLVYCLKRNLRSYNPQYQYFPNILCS

sPLA2-X protein [3] = target: T3, sPLA2-X protein (Homo sapiens, UniProt O15496); assay: SPR single cycle kinetic binding analysis against sPLA2-X; design: His tag (implied by capture on NTA surface and by anti-His antibody); conditions: protein captured cross-linked on NTA surface, 1:1 fit
T3 sequence (O15496 43-165): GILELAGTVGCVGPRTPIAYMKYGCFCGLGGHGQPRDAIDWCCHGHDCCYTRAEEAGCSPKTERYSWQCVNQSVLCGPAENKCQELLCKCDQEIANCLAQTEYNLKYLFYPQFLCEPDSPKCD
Description: sPLA2-X protein was captured on flow cell 2-4 on activated NTA surface (NTA Series S Sensorchip (Cytiva)) after dilution in 1×HBS-EP+buffer (Cytiva), 10 mM CaCl2 to 0.01 mg/mL with a flow rate of 5 μL/min for 60 sec. Single cycle kinetic binding analysis was performed using 10 mM stock solution of LY531590 (Cayman Chemical, item #18267) (prepared in DMSO diluted 1:5 in running buffer (lx HBS-EP+buffer (Cytiva)+10 mM CaCl2+2% DMSO) from 10 to 0.016 μM. Flow cell 1 was used as a reference surface and 350 mM EDTA (Cytiva) was used to regenerate the surface. DMSO solvent correction was included. A 1:1 fit was used for the kinetics analysis.
SPLA2-X protein was captured cross-linked on flow cell 2, 3, and 4 with activated NTA surface (NTA Series S Sensorchip (Cytiva)) at 0.01 mg/mL with a flow rate of […] for 60 sec. Single cycle kinetic binding analysis was performed using a 50 mM stock solution of Compound 5 (prepared in DMSO) diluted 1:5 in running buffer (1×HIBS-EP+buffer (Cytiva)+10 mM CaCl2+2% o DMSO) from 800 to 1.2 nMV. Flow cell 1 was used as a reference surface. DMSO solvent correction was included. A 1:1 fit was used for the kinetics and steady state affinity analysis.

sPLA2-X protein [4] = target: T3, sPLA2-X protein; assay: sPLA2-X enzyme inhibition assay (thio-PC substrate, DTNB detection, absorbance 410 nm); format: biochemical; design: made in house; host or cells: E. coli; conditions: class symbols
[5] = read-out: sPLA2 Type IIa Inhibition (IC50; nM)
[6] = read-out: sPLA2 Type V Inhibition (IC50; nM)
[7] = read-out: sPLA2 Type X Inhibition (IC50; nM)

Compound	IC50 [1, 5] [nM]	IC50 [2, 6] [nM]	Rmax (sPLA2-X protein [3])	Kd (sPLA2-X protein [3]; kinetics and steady state affinity) [nM]	IC50 (sPLA2-X protein [4]; [7]) [nM]	IC50 ([1]; sPLA2 Type IIa Inhibition (IC50; nM)) [nM]	IC50 ([2]; sPLA2 Type V Inhibition (IC50; nM)) [nM]	IC50 (sPLA2-X protein [4]; sPLA2 Type X Inhibition (IC50; nM)) [nM]
NC(=O)c1[se]c2ccc(OC(F)(F)F)cc2c1-c1cccc(C2CC2C(=O)O)n1 (stereo not drawn) [Compound 57, trans-2-(6-(2-carbamoyl-5-(trifluoromethoxy)benzo[b]selenophen-3-yl)pyridin-2-yl)cyclopropane-1-carboxylic acid]	–	–	–	–	–	> 1000	> 5000	50 to 200
NC(=O)c1cc2ccc(OC(F)(F)F)cc2n1-c1cccc(C2(CC(=O)O)CC2)n1 [Compound 59, 2-(1-(6-(2-carbamoyl-6-(trifluoromethoxy)-1H-indol-1-yl)pyridin-2-yl)cyclopropyl)acetic acid]	> 1000	> 5000	–	–	< 20	–	–	–
CC(C)(CC(=O)O)c1cccc(-n2c(C(N)=O)cc3ccc(OC(F)(F)F)cc32)n1 [Compound 62, 3-(6-(2-carbamoyl-6-(trifluoromethoxy)-1H-indol-1-yl)pyridin-2-yl)-3-methylbutanoic acid]	> 1000	1500 to 5000	–	–	20 to 50	–	–	–
NC(=O)c1cc2ccc(OC(F)(F)F)cc2n1-c1cccc(N2CC(F)(F)C2)n1 [Compound 68, 1-(6-(3,3-difluoroazetidin-1-yl)pyridin-2-yl)-6-(trifluoromethoxy)-1H-indole-2-carboxamide]	> 1000	> 5000	–	–	50 to 200	–	–	–
NC(=O)c1cc2ccc(OC(F)(F)F)cc2n1-c1cccc(N2CC[C@H]2C(=O)O)n1 [Compound 69, (S)-1-(6-(2-carbamoyl-6-(trifluoromethoxy)-1H-indol-1-yl)pyridin-2-yl)azetidine-2-carboxylic acid]	> 1000	> 5000	–	–	> 200	–	–	–
NC(=O)c1cc2ccc(OC(F)(F)F)cc2n1-c1cccc(N2CC[C@@H]2C(=O)O)n1 [Compound 70, (R)-1-(6-(2-carbamoyl-6-(trifluoromethoxy)-1H-indol-1-yl)pyridin-2-yl)azetidine-2-carboxylic acid]	> 1000	500 to 1500	–	–	< 20	–	–	–

The next lines start with results.

IC50 [1, 5] [nM]	IC50 [2, 6] [nM]	Rmax (sPLA2-X protein [3])	Kd (sPLA2-X protein [3]; kinetics and steady state affinity) [nM]	IC50 (sPLA2-X protein [4]; [7]) [nM]	Compound	IC50 ([1]; sPLA2 Type IIa Inhibition (IC50; nM)) [nM]	IC50 ([2]; sPLA2 Type V Inhibition (IC50; nM)) [nM]	IC50 (sPLA2-X protein [4]; sPLA2 Type X Inhibition (IC50; nM)) [nM]
200 to 500	1500 to 5000	2.13	8.02	20 to 50	NC(=O)c1sc2ccc(OC(F)(F)F)cc2c1-c1cccc(CCC(=O)O)c1 [Compound 5, 3-(3-(2-carbamoyl-5-(trifluoromethoxy)benzo[b]thiophen-3-yl)phenyl)propanoic acid]	–	–	–
> 1000	> 5000	–	–	> 200	CS(=O)(=O)OCC(F)(F)c1cccc(-n2c(C(N)=O)cc3ccc(OC(F)(F)F)cc32)c1 [Compound 47, 2-(3-(2-carbamoyl-6-(trifluoromethoxy)-1H-indol-1-yl)phenyl)-2,2-difluoroethyl methanesulfonate]	–	–	–
> 1000	> 5000	–	–	> 200	CC(C)(C)OC(=O)NC1(c2cccc(-n3c(C(N)=O)cc4ccc(OC(F)(F)F)cc43)n2)CCC1 [Compound 48, tert-butyl (1-(6-(2-carbamoyl-6-(trifluoromethoxy)-1H-indol-1-yl)pyridin-2-yl)cyclobutyl)carbamate]	–	–	–
> 1000	> 5000	–	–	> 200	NC(=O)c1cc2ccc(OC(F)(F)F)cc2n1-c1cccc(C2(N)CCC2)n1 [Compound 49, 1-(6-(1-aminocyclobutyl)pyridin-2-yl)-6-(trifluoromethoxy)-1H-indole-2-carboxamide TFA salt]	–	–	–
> 1000	> 5000	–	–	20 to 50	NC(=O)c1cc2ccc(OC(F)(F)F)cc2n1-c1cccc(C2(NCC(=O)O)CCC2)n1 [Compound 50, (1-(6-(2-carbamoyl-6-(trifluoromethoxy)-1H-indol-1-yl)pyridin-2-yl)cyclobutyl)glycine]	–	–	–
> 1000	1500 to 5000	–	–	50 to 200	NC(=O)c1cc2ccc(OC(F)(F)F)cc2n1-c1cccc(N2CC(C(=O)O)C2)n1 [Compound 52, 1-(6-(2-carbamoyl-6-(trifluoromethoxy)-1H-indol-1-yl)pyridin-2-yl)azetidine-3-carboxylic acid]	–	–	–
> 1000	> 5000	–	–	50 to 200	NC(=O)c1cc2ccc(OC(F)(F)F)cc2n1-c1cncc(CCC(=O)O)c1 [Compound 53]	–	–	–
> 1000	> 5000	–	–	< 20	NC(=O)c1sc2ccc(OC(F)(F)F)cc2c1-c1cccc(C2CC2C(=O)O)n1 (stereo not drawn) [Compound 56, trans-2-(6-(2-carbamoyl-5-(trifluoromethoxy)benzo[b]thiophen-3-yl)pyridin-2-yl)cyclopropane-1-carboxylic acid]	–	–	–
> 1000	> 5000	–	–	> 200	NC(=O)c1nc2ccc(OC(F)(F)F)cc2n1-c1cccc(C2CC2C(=O)O)n1 (stereo not drawn) [Compound 58, trans-2-(6-(2-carbamoyl-6-(trifluoromethoxy)-1H-benzo[d]imidazol-1-yl)pyridin-2-yl)cyclopropane-1-carboxylic acid]	–	–	–
